Test results: EP0431972A2, “Macrocyclic lactones having renin inhibiting properties” (MERCK & CO. INC., priority 1989, dated 1991)
Square brackets hold non-standard residues; d marks the D form. Peptide text beside a SMILES is read from it. * marks the point of attachment. Sta = CC(C)C[C@H](N)[C@@H](O)CC(=O)O; Isovaleryl = CC(C)CC(=O)*

Experiments:
human plasma renin = human plasma renin IC50 determination; type: biochemical; conditions: against human plasma renin, pH 7.4
Experimental: The following method was used for in vitro evaluation of the renin inhibitors of Formuta t: • The human plasma renin IC50 values for inhibitors of Formula I were determined at pH 7.4 following the procedure described in J. Boger, L.S. Payne, D.S. Perlow, N.S. Lohr, M. Poe, E.H. Blaine, E.H. Elm, T.W. Schorn, B.I. Lamont, T.-Y. Lin, M. Kawai, D.H. Rich and D.F. Veber, J. Med. Chem., 28, 1779 (1985).

[1] = test system: conscious sodium-deficient Rhesus monkeys; assay: intravenous evaluation of renin inhibitors in conscious sodium-deficient Rhesus monkeys (blood pressure lowering); type: in vivo; conditions: i.v. bolus injection
From the text: The following methods were used for in vivo evaluation of the renin inhibitors of Formua I : Intravenous evaluation of renin inhibitors in conscious sodium-deficient Rhesus monkeys : Rhesus monkeys, male and female, weighing 2.6-4.5 Kg, were surgically prepared with chronic arterial and venous catheters and vascular access ports for direct monitoring of mean arterial pressure (MAPI) and heart rate (HR). The animals were maintained on a low sodium diet (1.2 mmol Nalday) plus fruit for a week, and administered LASIX (furosemide) at 2.5 mg/Kg, intramuscularly the evening prior to the experiment The animals had been trained to sit quietly in the chairs with waterAD LIBIUM for the duration of the experiment. The inhibitors were administered by bolus injection using 0.5% acetic acid-5% dextrose in water as the vehicle (0.4 ml/Kg), and MAP and HRwere measured. Blood samples were withdrawn at different time intervals beginning at the nadir of hypotensive response. PRA was determined as described above. […] A projected ED50 dose for each inhibitorwas calculated using the following formula: ED50 (Test Inhibitor, umoles/Kg) = ED50 (SCRIP) X [IC50 (Test Inhibitor)/IC50 (SCRIP)], where the IC50 values were determined against human plasma renin. […] Percent inhibition of monkey PRA, changes in MAP and HR were calculated and plotted against time. […]

IC50 (human plasma renin): 3.7 nM
SMILES: CC(C)CC(=O)N[C@@H](Cc1c[nH]cn1)C(=O)N1CCC[C@H]1C(=O)N[C@@H](Cc1ccccc1)C(=O)N[C@@H](Cc1c[nH]cn1)C(=O)N[C@@H](CC(C)C)[C@@H](O)CC(=O)N[C@@H](CC(C)C)C(=O)N[C@@H](Cc1ccccc1)C(N)=O [SCRIP, Iva-His-Pro-Phe-His-Sta-Leu-Phe-NH2] (Isovaleryl-HPFH[Sta]LF-NH2)
i.v. dose of the standard inhibitor required to lower blood pressure by 50% of the maximal response (ED50) [1]: 0.039 µmol/kg
